Laboratory results taken from patent US20220008450A1, “ANTI-HEPATITIS B VIRUS AGENT” (DAIKIN INDUSTRIES, LTD., priority 2018, published 2022).

Columns and labels:
HBV = assay: Anti-HBV activity: intracellular HBV DNA by quantitative PCR in HepG2.2.15 cells; type: cell-based, hepatitis B virus; conditions: for EC50: Hepatitis B virus, 168 h, HepG2.2.15 cells, intracellular HBV DNA, day 7 after addition, read-out: EC50 (50% effective concentration), anti-HBV activity
Experimental: Anti-HBV activity was evaluated by quantitative PCR for determining the amount of HBV DNA in cells on the seventh day after the addition of the agent, using the HepG2.2.15 cell line of HBV-producing cells obtained by introducing a gene having a length twice that of the HBV genome into the human liver cancer cell line HepG2. For PCR of HBV DNA, a forward primer (HBV-S190F; 5′-GCT CGT GTT ACA GGC GGG-3′: SEQ ID NO: 1) and a reverse primer (HBV-S703R; 5′-GAACCACTGAACAAATGGCACTAGTA-3′: SEQ ID NO: 2) were used. PCR was performed by carrying out a reaction at 95° C. for 10 sec, 62° C. for 10 sec, and 72° C. for 30 sec for 35 cycles.
Specifically, HepG2.2.15 cells were seeded at a concentration of 1×10^5 cells/well. 24 hours later, the compounds of Example 1 and Comparative Example 1 were diluted to have a concentration of 0, 0.49, 0.97, 1.95, 3.90, 7.81, 15.6, 31.3, 62.5, 125, 250, 500, and 1000 nM; and added to the cells. After the cells were cultured for 7 days, each cytoplasmic compartment was collected, and DNA was purified by phenol-chloroform extraction. 20 ng of the purified DNA was used to measure the amount of intracellular HBV DNA by quantitative PCR.
The EC50 (50% effective concentration) was calculated from a graph showing the relationship between the concentration of the compound and anti-HBV activity.

HBs antigen = HBs antigen level in HepG2.2.15 culture supernatant by CLIA; type: cell-based, hepatitis B virus; conditions: day 4 after addition, compared to Entecavir and Tenofovir disoproxil fumarate (FIG. 2)
Experimental: The HBs antigen level was measured by measuring the culture supernatant on the fourth day after the addition of the agent by chemiluminescent immunoassay (CLIA) using HepG2.2.15, i.e., HBV-producing cells obtained by introducing a gene having a length twice that of the HBV genome into the human liver cancer cell line HepG2.

[1] = Cytotoxicity test (WST-1) in HepG2 NTCP-myc cells; type: cell-based; conditions: human, 7 days culture, read-out: CC50 (50% cytotoxic concentration)
Experimental: HepG2 NTCP-myc cells were seeded at a concentration of 2×10^4 cells/well. 24 hours later, agents were diluted to have a concentration of 0, 0.49, 0.97, 1.95, 3.90, 7.81, 15.6, 31.3, 62.5, 125, 250, 500, and 1000 nM; and added to the cells. The HepG2 NTCP-myc cells were cultured for 7 days. After the culture, 10 μl of Premix WST-1 Cell Proliferation Assay System (TaKaRa) was added, and the cells were cultured at 37° C. for 2 hours. Thereafter, absorbance was determined at 450 nm using a microplate reader.
The CC50 (50% cytotoxic concentration) was calculated from a graph showing the relationship between the concentration of the compound and cytotoxicity.

SMILES	EC50 (HBV) [µM]	SI (CC50/EC50) (HBV; CC50 (HepG2 NTCP-myc) divided by EC50 (HepG2.2.15))	HBs antigen level (relative amount of extracellular HBs antigen) (HBs antigen)	CC50 at 7 days [1] [µM]
OC[C@H]1O[C@@H](n2cnc3c(Cl)nc(Cl)nc32)[C@@H](F)[C@@H]1O [Comparative Example 1, 2,6-dichloro-9-((2R,3S,4R,5R)-3-fluoro-4-hydroxy-5-(hydroxymethyl)tetrahydrofuran-2-yl)-9H-purine, reference compound]	> 10			
Nc1nc(F)nc2c1ncn2[C@@H]1O[C@H](CO)C(O)C1F (stereo partly drawn) [Example 1, 2′-deoxy-2′-fluoro-β-2-fluoro-D-adenosine]	0.00158	213411	remarkably reduced	337
